Data reported in patent EP0986381B1, “USE OF DITERPENES LIKE HYPOESTOXIDES FOR THE MANUFACTURE OF A MEDICAMENT FOR IMMUNOSUPPRESSION, ANTICANCER AND ANTIVIRAL TREATMENT” (Immune Modulation, Inc., priority 1997, dated 1998).

How the values were obtained:
NK activity = NK activity in vivo, spleen cells against YAC-1 targets, 51Cr-release; design: species or system Mice
[1] = tested on: human cervical epitheloid carcinoma (HeLa) cells; assay: Colorimetric MTT cytotoxicity assay, HeLa; assay type: cell-based; settings: 72 hours, read-out: IC50 (drug concentration capable of inducing 50% cytotoxicity)
Description: (§1) The following materials and methods were employed in the non-limiting Examples set out below. Tumor cells: Human cervical epitheloid carcinoma (HeLa), human renal clear cell carcinoma (CAKI-1), human malignant melanoma (RPMI-7951) and mouse malignant melanoma (B16-F1) were procured from ATCC (Rockville, MD) and maintained in vitro with MEM medium (Mediatech, Inc., Herndon, VA) supplemented with 10% heat-inactivated fetal bovine serum (American Qualex, San Clemente, CA), 10mM glutamine, 100 U/ml penicillin, and 100 µg/ml streptomycin (Sigma Chemicals, Saint Louis, MO) (complete medium). […] Cell viability was assessed by trypan blue dye exclusion test and the cell number was adjusted to required concentration. Colorimetric MTT assay: Cytotoxic effects of the hypoestoxide compounds of formulas I and II (JO-4A) were determined in vitro by a colorimetric assay (Mosmann, T., J. Immunol. Methods, 65: 55-63, 1983). […] Mixing with a multichannel pipetter dissolved the dark blue crystals and the absorbance was measured at 545-650 nm using an ELISA plate reader. […] The tumors were measured with a microcaliper, and the tumor volume was calculated by the formula: Length x width x height x 0.5236 (Jungwirth, A. et al., Proc. Natl. Acad. Sci. USA, 94:5810-5813, 1997). […]

[2] = tested on: renal carcinoma (CAKI-1) cells; assay: Colorimetric MTT cytotoxicity assay, CAKI-1; assay type: cell-based; settings: Homo sapiens; CAKI-1, 72 hours
Description: as §1

[3] = tested on: human malignant melanoma (RPMI-7951); assay: Colorimetric MTT cytotoxicity assay, RPMI-7951; assay type: cell-based; settings: RPMI-7951, 72 hours
Description: as §1

[4] = Colorimetric MTT cytotoxicity assay, normal cervical ectoepithelial cells; assay type: cell-based; settings: human, crec-ec cells
[5] = tested on: normal human peripheral blood mononuclear cells; assay: Colorimetric MTT cytotoxicity assay, normal PBMC; assay type: cell-based; settings: 72 hours
Description: as §1

[6] = Colorimetric MTT cytotoxicity assay, HMEC; assay type: cell-based; settings: human, read-out: IC50 concentration (cytotoxicity)
B16-F1 melanoma tumor = B16-F1 melanoma tumor growth and survival in mice; assay type: in vivo, C57BL/6 (B6) mice; settings: for survival of mice: day 28
Description: The following materials and methods were employed in the non-limiting Examples set out below. Tumor cells: Human cervical epitheloid carcinoma (HeLa), human renal clear cell carcinoma (CAKI-1), human malignant melanoma (RPMI-7951) and mouse malignant melanoma (B16-F1) were procured from ATCC (Rockville, MD) and maintained in vitro with MEM medium (Mediatech, Inc., Herndon, VA) supplemented with 10% heat-inactivated fetal bovine serum (American Qualex, San Clemente, CA), 10mM glutamine, 100 U/ml penicillin, and 100 µg/ml streptomycin (Sigma Chemicals, Saint Louis, MO) (complete medium). Normal cells: Normal human cervical ectoepithelial cells (CrEc-Ec), normal human mammary epithelial cells (HMEC) and normal human umbilical vein endothelial cells (HUVEC) were obtained from Clonetics (San Diego, CA) and cultured with the respective recommended tissue culture medium obtained from Clonetics. Peripheral Blood Mononuclear cells (PBMC): Heparinized venous blood was obtained from healthy adult volunteers and PBMC were separated by centrifugation over Ficoll-Hypaque (Pharmacia Biotech, Piscataway, NJ). The cells were washed three times with HBSS (Hanks Balanced Salt Solution) and finally resuspended in complete medium. Cell viability was assessed by trypan blue dye exclusion test and the cell number was adjusted to required concentration. Colorimetric MTT assay: Cytotoxic effects of the hypoestoxide compounds of formulas I and II (JO-4A) were determined in vitro by a colorimetric assay (Mosmann, T., J. Immunol. Methods, 65: 55-63, 1983). Briefly, 1000 cells per well (100 µl) in a 96-well flat-bottom plate were cultured either with the culture medium alone or with various concentrations of drug at 37°C, in a 5% CO2-95% air humidified incubator for 72 hours. At the end of the culture, 10 µl of 5 mg/ml sterile solution of 3-(4,5-Dimethylthiazol-2yl)-2,5-diphenyltetrazolium bromide (MTT) (Sigma Chemicals, Saint Louis, MO) in PBS was added per well and the incubation was resumed for an additional 4 hours. Acid-isopropanol (100 µl of 0.04 N HCl in isopropanol) was added to all wells and kept at room temperature for 30 minutes. Mixing with a multichannel pipetter dissolved the dark blue crystals and the absorbance was measured at 545-650 nm using an ELISA plate reader. Mice: Eight-week-old female C57BL/6 (B6) mice were purchased from Charles River Laboratories (Wilmington, MA. The measurement of tumor volume in mice: B16-F1 melanoma cells growing exponentially in vitro were harvested by 15 minutes incubation with 0.25% trypsin-EDTA solution (Irvin Scientific, Irvine, CA). The mice were given subcutaneous (s.c.) injections of 50,000 viable cells on the right side (Fidler, I. J. Cancer Research 35:218-224, 1975). Four days after injection, the mice in the experimental group were gavaged orally with various concentrations of JO-4A in 0.2 ml of water and the control group received water alone. The tumors were measured with a microcaliper, and the tumor volume was calculated by the formula: Length x width x height x 0.5236 (Jungwirth, A. et al., Proc. Natl. Acad. Sci. USA, 94:5810-5813, 1997). Statistical analysis: Students' t-test was used to calculate the level of significance.

IL-1β, TNF-α, and IL-6 = assay: LPS-induced pro-inflammatory cytokine synthesis in PBMC, enzyme immunoassay; assay type: cell-based, human; settings: 1 µg/mL JO-4, LPS-stimulated PBMC
Description: Human peripheral blood mononuclear cells (PBMC) were cultured with B-cell mitogen LPS (Gibco BRL, Grand Island, NY) 3 µg/mL) at 2 x 10^6/mL in 1.0 mL volumes in 24-well plates in the presence of either 1 µg/mL JO-4 or medium for 48 hr. In a 37°C incubator with 5% CO2. Culture supernatants were collected at the end of incubation period and were assayed by enzyme immunoassay for the presence of the cytokines: interleukin-1β,-6 and TNF-α. Results are expressed as inhibition of cytokine production.

Mouse spleen cells = assay: LPS-induced murine lymphocyte proliferation in vitro; assay type: cell-based; settings: all concentrations tested (1.5 µg/mL-50 µg/mL); LPS 5 µg/ml, 48 hours
Description: LPS is a B-cell mitogen in mice and it is also known to induce pro-inflammatory cytokines such as TNF-α, IL-6 and IL-1β in both murine and human mononuclear cells (Cunningham, A.J., ed; Understanding Immunology 1978;Academic Press, Inc., New York, USA). Murine lymphocytes were stimulated with LPS in vitro in the absence or presence of varying concentrations of JO-4 (1.5, 2.5, 5.0, 10.0, and 50.0 µg/mL).

human PBMCs = assay: PHA-induced proliferation of human PBMCs; assay type: cell-based; settings: 1.25-50.0 µg/mL, 4 days
Description: Human PBMCs were cultured for 4 days in the absence or presence of varying concentrations of JO-4 (1.25, 2.5, 5.0, 10.0 and 50.0 µg/mL). PHA is a potent T-cell mitogen and stimulates T-cells to produce IL-2.

| Structure (SMILES) | NK activity in vivo (NK activity; intravenous administration) | NK activity in vivo (NK activity; oral administration) | IC50 [1] [µM] | IC50 [2] [µM] | IC50 [3] [µM] | cytotoxicity ([4]; at the IC50 dose for HeLa (between 10 µM and 12.5 µM), read-out: cytotoxic effect) [%] | CC50 at 72 h ([4]; normal cervical ectoepithelial cells, 72 hours, read-out: IC50 (cytotoxicity)) [µM] | cytotoxic effect [5] | CC50 at 72 h [6] [µM] | survival of mice (B16-F1 melanoma tumor; 0.1 mg/Kg orally daily day 4 to day 20) [%] | survival of mice (B16-F1 melanoma tumor; 0.5 mg/Kg orally daily day 4 to day 20) [%] | survival of mice (B16-F1 melanoma tumor; 1 mg/Kg orally daily day 4 to day 20) [%] | survival of mice (B16-F1 melanoma tumor; 2 mg/Kg orally daily day 4 to day 20) [%] | survival compared with non-treated group (B16-F1 melanoma tumor; 2 mg/Kg orally, treatment stopped on day 20) | tumor volume (B16-F1 melanoma tumor; oral, daily from day 4 post tumor implantation, all four concentrations tested, measured day 12) | effect on pro-inflammatory cytokine synthesis (IL-1β, TNF-α, and IL-6) | inhibition of LPS-induced proliferation of murine lymphocytes (Mouse spleen cells) | effect on PHA-induced proliferation of human lymphocytes (human PBMCs) |
| --- | --- | --- | --- | --- | --- | --- | --- | --- | --- | --- | --- | --- | --- | --- | --- | --- | --- | --- |
| C=C1C(=O)CC2CC3OC3(C)CCC3OC3(C)CC(O)C1C2(C)C (stereo not drawn) [JO-4A] | inhibited | inhibited | 10 to 12.5 | 20 to 40 | 10 to 12.5 | 6 | > 100 | no cytotoxic effect | 25 to 50 | 17 | 60 | 67 | 84 | survived longer | significantly reduced |  |  |  |
| C=C1C(=O)C[C@H]2C[C@@H]3O[C@@]3(C)CC[C@@H]3O[C@@]3(C)C[C@@H](OC(C)=O)[C@H]1C2(C)C [JO-4, hypoestoxide] |  |  |  |  |  |  |  |  |  |  |  |  |  |  |  | inhibitory or immunosuppressant effect | more than 50% | inhibitory effect |
